Measurements reported in PubChem BioAssay (NCI).
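Five compound concentrations were applied to cells in 96-well plates for 48 hours; endpoints were derived by simple linear interpolation of the resulting dose-response curve. TGI marks complete inhibition of growth.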 Where a SMILES comes first, the peptide text is derived from it. [ ]: non-standard residue; d: D form. The star is where a group is joined. Phe(4-NO2) = N[CH](Cc1ccc([N+](=O)[O-])cc1)C(=O)O; Cbz = O=C(OCc1ccccc1)*

Legend:
Assay in all cases: inhibition of tumour cell growth, NCI panel, 48 h
[1] = tested on: PC-3 prostate
[2] = tested on: SK-MEL-28 melanoma
[3] = tested on: ACHN renal
[4] = tested on: BT-549 breast
[5] = tested on: U251 CNS
[6] = tested on: SR leukemia
[7] = tested on: NCI-H460 lung
[8] = tested on: MDA-MB-435
[9] = tested on: M14 melanoma
[10] = tested on: HL-60(TB) leukemia
[11] = tested on: SF-295 CNS
[12] = tested on: HOP-62 NSCLC
[13] = tested on: MOLT-4 leukemia
[14] = tested on: RPMI-8226 leukemia
[15] = tested on: SW-620 colon
[16] = tested on: SK-OV-3 ovarian
[17] = tested on: RXF 393 renal
[18] = tested on: MCF7 breast
[19] = tested on: OVCAR-8 ovarian
[20] = tested on: HT29 colon
[21] = tested on: MALME-3M melanoma
[22] = tested on: NCI/ADR-RES ovarian
[23] = tested on: TK-10 renal
[24] = tested on: A549 NSCLC
[25] = tested on: UO-31 renal
[26] = tested on: SK-MEL-5 melanoma
[27] = tested on: NCI-H226 lung
[28] = tested on: A498 renal
[29] = tested on: SK-MEL-2 melanoma
[30] = tested on: SF-268 CNS
[31] = tested on: UACC-257 melanoma
[32] = tested on: CAKI-1 renal
[33] = tested on: HOP-92 NSCLC
[34] = tested on: NCI-H23 lung
[35] = tested on: NCI-H522 lung
[36] = tested on: HS 578T breast
[37] = tested on: OVCAR-5 ovarian
[38] = tested on: OVCAR-4 ovarian
[39] = tested on: MDA-MB-231 breast
[40] = tested on: CCRF-CEM leukemia
[41] = tested on: COLO 205 colon
[42] = tested on: EKVX NSCLC
[43] = tested on: SNB-19 CNS
[44] = tested on: 786-0 renal
[45] = tested on: T-47D breast
[46] = tested on: SNB-75 CNS
[47] = tested on: HCT-15 colon
[48] = tested on: SN12C renal
[49] = tested on: HCT-116 colon
[50] = tested on: K-562 leukemia
[51] = tested on: LOX IMVI melanoma
[52] = tested on: MDA-N
[53] = tested on: SF-539 CNS
[54] = tested on: IGROV1 ovarian
[55] = tested on: OVCAR-3 ovarian
[56] = tested on: UACC-62 melanoma
[57] = tested on: DU-145 prostate
[58] = tested on: KM12 colon
[59] = tested on: HCC-2998 colon

`C=CCc1c(C)nc(C)nc1N/N=C/C=C/c1ccccc1` showed a TGI [1] of over 100 µM, a TGI [2] of over 100 µM and a TGI [3] of over 100 µM. The TGI [4] was 63.2 µM, the TGI [5] was 61.3 µM and the TGI [6] was 57.3 µM. For the same compound, the TGI [7] was 57.5 µM, the TGI [8] was over 100 µM and the TGI [9] was over 100 µM. The TGI [10] was 81.2 µM, the TGI [11] was 52.9 µM and the TGI [12] was 38.8 µM. It also gave a TGI [13] of 54 µM, a TGI [14] of 74.9 µM and a TGI [15] of over 100 µM. For the same compound, the TGI [16] was over 100 µM, the TGI [17] was 47 µM and the TGI [18] was 65.3 µM. It also gave a TGI [19] of 97.7 µM, a TGI [20] of over 100 µM and a TGI [21] of over 100 µM. For the same compound, the TGI [22] was 64.8 µM, the TGI [23] was 99.9 µM and the TGI [24] was over 100 µM. For the same compound, the TGI [25] was over 100 µM, the TGI [26] was 84.2 µM and the TGI [27] was over 100 µM. The TGI [28] was 65.2 µM, the TGI [29] was over 100 µM and the TGI [30] was over 100 µM. For the same compound, the TGI [31] was 48.9 µM, the TGI [32] was over 100 µM and the TGI [33] was 99.5 µM. It also gave a TGI [34] of 94 µM, a TGI [35] of over 100 µM and a TGI [36] of over 100 µM. The TGI [37] was over 100 µM, the TGI [38] was 0.18 µM and the TGI [39] was over 100 µM. For the same compound, the TGI [40] was over 100 µM, the TGI [41] was over 100 µM and the TGI [42] was 69.2 µM. For the same compound, the TGI [43] was over 100 µM, the TGI [44] was over 100 µM and the TGI [45] was 28 µM. It also gave a TGI [46] of 91.6 µM, a TGI [47] of over 100 µM and a TGI [48] of over 100 µM. For the same compound, the TGI [49] was over 100 µM, the TGI [50] was 87.4 µM and the TGI [51] was over 100 µM. The TGI [52] was over 100 µM, the TGI [53] was over 100 µM and the TGI [54] was over 100 µM. It also gave a TGI [55] of 53.3 µM and a TGI [56] of 53.4 µM.
`CCOC(=O)CCC(NC(=O)OCc1ccccc1)C(=O)NC(CCC(=O)OCC)C(=O)NC(Cc1ccc([N+](=O)[O-])cc1)C(=O)NC(CCC(=O)OCC)C(=O)NC(CCC(=O)OCC)C(=O)OCC` (stereo not drawn) (Cbz-E(OEt)E(OEt)[Phe(4-NO2)]E(OEt)E(OEt)-OEt; configuration not given here) was tested, and the TGI [1] was over 100 µM, the TGI [2] was over 100 µM and the TGI [3] was over 100 µM. It also gave a TGI [4] of over 100 µM, a TGI [5] of over 100 µM and a TGI [6] of over 100 µM. It also gave a TGI [7] of over 100 µM, a TGI [8] of over 100 µM and a TGI [11] of over 100 µM. It also gave a TGI [12] of over 100 µM, a TGI [13] of over 100 µM and a TGI [14] of over 100 µM. The TGI [15] was over 100 µM, the TGI [16] was over 100 µM and the TGI [17] was over 100 µM. The TGI [18] was over 100 µM, the TGI [19] was over 100 µM and the TGI [20] was over 100 µM. For the same compound, the TGI [21] was over 100 µM, the TGI [22] was over 100 µM and the TGI [23] was over 100 µM. For the same compound, the TGI [24] was over 100 µM, the TGI [25] was over 100 µM and the TGI [26] was over 100 µM. For the same compound, the TGI [29] was over 100 µM, the TGI [31] was over 100 µM and the TGI [32] was over 100 µM. The TGI [34] was over 100 µM, the TGI [35] was over 100 µM and the TGI [36] was over 100 µM. For the same compound, the TGI [37] was over 100 µM, the TGI [38] was over 100 µM and the TGI [39] was over 100 µM. For the same compound, the TGI [40] was over 100 µM, the TGI [41] was over 100 µM and the TGI [42] was over 100 µM. The TGI [43] was over 100 µM, the TGI [44] was over 100 µM and the TGI [45] was over 100 µM. It also gave a TGI [46] of over 100 µM, a TGI [47] of over 100 µM and a TGI [48] of over 100 µM. It also gave a TGI [49] of over 100 µM, a TGI [57] of over 100 µM and a TGI [51] of over 100 µM. The TGI [52] was over 100 µM, the TGI [54] was over 100 µM and the TGI [56] was over 100 µM. It also gave a TGI [58] of over 100 µM.
`C=C(C)CNC(=S)N(N)c1ccc(OC)cc1` was tested, and the TGI [1] was over 100 µM, the TGI [2] was over 100 µM and the TGI [3] was over 100 µM. The TGI [4] was over 100 µM, the TGI [5] was over 100 µM and the TGI [6] was over 100 µM. It also gave a TGI [7] of over 100 µM, a TGI [8] of over 100 µM and a TGI [9] of over 100 µM. It also gave a TGI [10] of over 100 µM, a TGI [11] of over 100 µM and a TGI [12] of over 100 µM. It also gave a TGI [13] of over 100 µM, a TGI [14] of over 100 µM and a TGI [15] of over 100 µM. The TGI [16] was over 100 µM, the TGI [17] was over 100 µM and the TGI [18] was over 100 µM. For the same compound, the TGI [19] was over 100 µM, the TGI [20] was over 100 µM and the TGI [21] was over 100 µM. The TGI [22] was over 100 µM, the TGI [23] was over 100 µM and the TGI [24] was over 100 µM. It also gave a TGI [59] of over 100 µM, a TGI [25] of over 100 µM and a TGI [26] of over 100 µM. It also gave a TGI [27] of over 100 µM, a TGI [30] of over 100 µM and a TGI [31] of over 100 µM. It also gave a TGI [33] of over 100 µM, a TGI [34] of over 100 µM and a TGI [35] of over 100 µM. It also gave a TGI [36] of over 100 µM, a TGI [37] of over 100 µM and a TGI [38] of over 100 µM. For the same compound, the TGI [39] was over 100 µM, the TGI [40] was over 100 µM and the TGI [41] was over 100 µM. The TGI [42] was over 100 µM, the TGI [43] was over 100 µM and the TGI [44] was over 100 µM. For the same compound, the TGI [45] was over 100 µM, the TGI [46] was over 100 µM and the TGI [47] was 56.8 µM. It also gave a TGI [48] of over 100 µM, a TGI [49] of over 100 µM and a TGI [57] of over 100 µM. For the same compound, the TGI [50] was over 100 µM, the TGI [51] was over 100 µM and the TGI [52] was over 100 µM. The TGI [53] was over 100 µM, the TGI [54] was over 100 µM and the TGI [55] was over 100 µM. The TGI [56] was 67.7 µM and the TGI [58] was over 100 µM.
`CCOC(=O)CC(=O)C(=O)NNC1=NCCN1` was tested, and the TGI [1] was over 100 µM, the TGI [2] was over 100 µM and the TGI [3] was over 100 µM. It also gave a TGI [4] of over 100 µM, a TGI [5] of over 100 µM and a TGI [6] of over 100 µM. For the same compound, the TGI [7] was over 100 µM, the TGI [8] was over 100 µM and the TGI [9] was over 100 µM. The TGI [10] was over 100 µM, the TGI [11] was over 100 µM and the TGI [12] was over 100 µM. It also gave a TGI [13] of over 100 µM, a TGI [14] of over 100 µM and a TGI [15] of over 100 µM. It also gave a TGI [16] of over 100 µM, a TGI [17] of over 100 µM and a TGI [18] of over 100 µM. The TGI [19] was over 100 µM, the TGI [20] was over 100 µM and the TGI [21] was over 100 µM. For the same compound, the TGI [22] was over 100 µM, the TGI [23] was over 100 µM and the TGI [24] was over 100 µM. It also gave a TGI [59] of over 100 µM, a TGI [25] of over 100 µM and a TGI [26] of over 100 µM. For the same compound, the TGI [27] was over 100 µM, the TGI [29] was over 100 µM and the TGI [30] was over 100 µM. The TGI [31] was over 100 µM, the TGI [33] was over 100 µM and the TGI [34] was over 100 µM. For the same compound, the TGI [35] was over 100 µM, the TGI [36] was over 100 µM and the TGI [37] was over 100 µM. It also gave a TGI [38] of over 100 µM, a TGI [39] of over 100 µM and a TGI [40] of over 100 µM. The TGI [41] was over 100 µM, the TGI [42] was over 100 µM and the TGI [43] was over 100 µM. For the same compound, the TGI [44] was over 100 µM, the TGI [45] was over 100 µM and the TGI [46] was over 100 µM. The TGI [47] was over 100 µM, the TGI [48] was over 100 µM and the TGI [49] was over 100 µM. For the same compound, the TGI [57] was over 100 µM, the TGI [50] was over 100 µM and the TGI [51] was over 100 µM. The TGI [52] was over 100 µM, the TGI [53] was over 100 µM and the TGI [54] was over 100 µM. It also gave a TGI [55] of over 100 µM, a TGI [56] of over 100 µM and a TGI [58] of over 100 µM.
